Source: patent publication US8748415B2 (priority 2011, dated 2014)

Tested on: recombinant NL4-3 virus (Renilla luciferase in nef, Gag P373S)
Assay: HIV cell culture assay (luciferase activity in MT-2 cells infected with NLRluc recombinant virus)
Format: cell-based
Details: NL43, MT-2 cells infected 4-5 days with NLRluc recombinant virus, class symbol
Procedure: HIV cell culture assay—MT-2 cells and 293T cells were obtained from the NIH AIDS Research and Reference Reagent Program. MT-2 cells were propagated in RPMI 1640 media supplemented with 10% heat inactivated fetal bovine serum, […]. The 293T cells were propagated in DMEM media supplemented with 10% heat inactivated fetal bovine serum (FBS), 100 units/ml penicillin G and 100 μg/ml streptomycin. The proviral DNA clone of NL4-3 was obtained from the NIH AIDS Research and Reference Reagent Program. A recombinant NL4-3 virus, in which a section of the nef gene from NL4-3 was replaced with the Renilla luciferase gene, was used as a reference virus. In addition, residue Gag P373 was converted to P373S. Briefly, the recombinant virus was prepared by transfection of the altered proviral clone of NL4-3. Transfections were performed in 293T cells using LipofectAMINE PLUS from Invitrogen (Carlsbad, Calif.), according to manufacturer's instruction. The virus was titered in MT-2 cells using luciferase enzyme activity as a marker. Luciferase was quantitated using the Dual Luciferase kit from Promega (Madison, Wis.), with modifications to the manufacturer's protocol. The diluted Passive Lysis solution was pre-mixed with the re-suspended Luciferase Assay Reagent and the re-suspended Stop & Glo Substrate (2:1:1 ratio). Fifty (50) μL of the mixture was added to each aspirated well on assay plates and luciferase activity was measured immediately on a Wallac TriLux (Perkin-Elmer). Antiviral activities of inhibitors toward the recombinant virus were quantified by measuring luciferase activity in cells infected for 4-5 days with NLRluc recombinants in the presence serial dilutions of the inhibitor. Table 1 is the key for the data in Table 2.

| SMILES | EC50 [nM] |
| --- | --- |
| C=C(C)[C@@H]1CC[C@]2(CNCCc3c[nH]cn3)CC[C@]3(C)[C@H](CC[C@@H]4[C@@]5(C)CC=C(c6ccc(C(=O)O)cc6)C(C)(C)[C@@H]5CC[C@]43C)[C@@H]12 [Example 25, 4-((1R,3aS,5aR,5bR,7aR,11aS,11bR,13aR,13bR)-3a-((2-(1H-imidazol-4-yl)ethylamino)methyl)-5a,5b,8,8,11a-pentamethyl-1-(prop-1-en-2-yl)-2,3,3a,4,5,5a,5b,6,7,7a,8,11,11a,11b,12,13,13a,13b-octadecahydro-1H-cyclopenta[a]chrysen-9-yl)benzoic acid] | < 100 |
| C=C(C)[C@@H]1CC[C@]2(CNCCCNCCO)CC[C@]3(C)[C@H](CC[C@@H]4[C@@]5(C)CC=C(c6ccc(C(=O)O)cc6)C(C)(C)[C@@H]5CC[C@]43C)[C@@H]12 [Example 61, 4-((1R,3aS,5aR,5bR,7aR,11aS,11bR,13aR,13bR)-3a-((3-(2-hydroxyethylamino)propylamino)methyl)-5a,5b,8,8,11a-pentamethyl-1-(prop-1-en-2-yl)-2,3,3a,4,5,5a,5b,6,7,7a,8,11,11a,11b,12,13,13a,13b-octadecahydro-1H-cyclopenta[a]chrysen-9-yl)benzoic acid] | < 100 |
| C=C(C)[C@@H]1CC[C@]2(CNCCC(=O)N3CCN(C)CC3)CC[C@]3(C)[C@H](CC[C@@H]4[C@@]5(C)CC=C(c6ccc(C(=O)O)cc6)C(C)(C)[C@@H]5CC[C@]43C)[C@@H]12 [Example 105, 4-((1R,3aS,5aR,5bR,7aR,11aS,11bR,13aR,13bR)-5a,5b,8,8,11a-pentamethyl-3a-((3-(4-methylpiperazin-1-yl)-3-oxopropylamino)methyl)-1-(prop-1-en-2-yl)-2,3,3a,4,5,5a,5b,6,7,7a,8,11,11a,11b,12,13,13a,13b-octadecahydro-1H-cyclopenta[a]chrysen-9-yl)benzoic acid] | < 100 |
| C=C(C)[C@@H]1CC[C@]2(CNC(=O)CNC)CC[C@]3(C)[C@H](CC[C@@H]4[C@@]5(C)CC=C(c6ccc(C(=O)O)cc6)C(C)(C)[C@@H]5CC[C@]43C)[C@@H]12 [Example 139, 4-((1R,3aS,5aR,5bR,7aR,11aS,11bR,13aR,13bR)-5a,5b,8,8,11a-pentamethyl-3a-((2-(methylamino)acetamido)methyl)-1-(prop-1-en-2-yl)-2,3,3a,4,5,5a,5b,6,7,7a,8,11,11a,11b,12,13,13a,13b-octadecahydro-1H-cyclopenta[a]chrysen-9-yl)benzoic acid] | < 100 |
| C=C(C)[C@@H]1CC[C@]2(CNC(=O)CN(C)C)CC[C@]3(C)[C@H](CC[C@@H]4[C@@]5(C)CC=C(c6ccc(C(=O)O)cc6)C(C)(C)[C@@H]5CC[C@]43C)[C@@H]12 [Example 148, 4-((1R,3aS,5aR,5bR,7aR,11aS,11bR,13aR,13bR)-3a-((2-(dimethylamino)acetamido)methyl)-5a,5b,8,8,11a-pentamethyl-1-(prop-1-en-2-yl)-2,3,3a,4,5,5a,5b,6,7,7a,8,11,11a,11b,12,13,13a,13b-octadecahydro-1H-cyclopenta[a]chrysen-9-yl)benzoic acid] | < 100 |
| C=C(C)[C@@H]1CC[C@]2(CNCCCC(=O)OC(C)(C)C)CC[C@]3(C)[C@H](CC[C@@H]4[C@@]5(C)CC=C(c6ccc(C(=O)O)cc6)C(C)(C)[C@@H]5CC[C@]43C)[C@@H]12 [Example 27, 4-((1R,3aS,5aR,5bR,7aR,11aS,11bR,13aR,13bR)-3a-((4-tert-butoxy-4-oxobutylamino)methyl)-5a,5b,8,8,11a-pentamethyl-1-(prop-1-en-2-yl)-2,3,3a,4,5,5a,5b,6,7,7a,8,11,11a,11b,12,13,13a,13b-octadecahydro-1H-cyclopenta[a]chrysen-9-yl)benzoic acid] | < 100 |
